Where two headings read alike, the source gives them in different places. Peptide text beside a SMILES is read from it.
How the values were obtained:
Assay type in all cases: cell-based, human
[1] = test system: various cancer cell lines; assay: MTT cytotoxicity assay, various cancer cell lines; conditions: Fig. 1a
Text: Eleven human cancer cell lines (including MCF-7 breast carcinoma, Bcap-37 breast carcinoma, MDA-MB-231 breast adenocarcinoma, HeLa cervical carcinoma, BGC-823 gastric carcinoma, A375 melanoma, NCI-H446 small cell lung carcinoma, HO-8910 ovarian carcinoma, SMMC-7721 hepatocellular carcinoma, LK-2 lung squamous cells carcinoma, and BEL-7402 hepatocellular carcinoma) were obtained from the CBCAS (Cell Bank of the Chinese Academy of Sciences, Shanghai, China). Human HaCaT keratinocytes were obtained from KeyGEN Biotech (Nanjing, China). Cells were routinely cultured in RPMI 1640 or L15 or DMEM containing 10% neonatal bovine serum (NBS) or fetal bovine serum (FBS), 1% l-glutamine, 1% sodium pyruvate, 50 U/mL penicillin and 50 μg/mL streptomycin. The cells were maintained at 37 °C in a humidified atmosphere of 5% CO2.
Cell viability was detected by MTT assay. The cells were seeded at 5 × 10^3 cells/well in 96-well plates 24 h before the peptide treatment. After 1, 6, 24, or 48 h of incubation with various concentrations of peptides (20–100 µM), 10 μL of the 5 mg/mL MTT solution was added to each well and incubated for additional 4 h. The purple-blue MTT formazan precipitate was dissolved in 150 μL of DMSO. The absorbance was determined using a microplate reader at 490 nm. […] The data were expressed as a percentage of the inhibition rate for the viable cells. […]

MCF-7 cells [2] = test system: MCF-7 cells
Method: (§1) Cell viability was detected by MTT assay. The cells were seeded at 5 × 10^3 cells/well in 96-well plates 24 h before the peptide treatment. After 1, 6, 24, or 48 h of incubation with various concentrations of peptides (20–100 µM), 10 μL of the 5 mg/mL MTT solution was added to each well and incubated for additional 4 h. The purple-blue MTT formazan precipitate was dissolved in 150 μL of DMSO. The absorbance was determined using a microplate reader at 490 nm. The experiments were performed in triplicate. The data were expressed as a percentage of the inhibition rate for the viable cells. For the thermo-sensitivity test, MCF-7 cells were treated with L-K6 at 4 °C or 37 °C for 30 min and then subjected to the MTT assay. For energy-dependent assay, the L-K6-treated MCF-7 cells were pre-incubated with 40 μM NaN3 for 30 min[39] and then subjected to the MTT assay. All experiments had been performed in triplicate.

HaCaT cells [3] = assay: MTT cytotoxicity assay, non-cancerous HaCaT cells; conditions: 1-hour peptide exposure
Method: as §1

MCF-7 cells [4] = assay: Cellular uptake by confocal microscopy, MCF-7 cells; conditions: FITC-labeled L-K6, confocal microscopy, after 5 min of peptide exposure
Method: (§2) MCF-7 or HaCaT cells were incubated with various concentrations of FITC-labeled L-K6 for 5, 10 or 60 min. Myelin and other lipophilic areas on cell membrane were stained with the red-orange fluorescent tracker DiI. The FITC-labeled peptides were traced and recorded at each time point using confocal microscopy.

HaCaT cells [5] = assay: Cellular uptake by confocal microscopy, HaCaT cells; conditions: FITC-labeled L-K6, confocal microscopy, 1-hour exposure
Method: as §2

| Compound | Cytotoxicity on cancer cell lines relative to L-K6 (MTT) [1] | IC50 (MCF-7 cells [2]; 1 h) | IC50 (MCF-7 cells [2]; 6 h) | IC50 (MCF-7 cells [2]; 24 h) | IC50 (MCF-7 cells [2]; 48 h) | Toxicity against normal HaCaT cells (MTT) (HaCaT cells [3]) | Cellular uptake into MCF-7 cells (MCF-7 cells [4]) | Cellular uptake into HaCaT cells (HaCaT cells [5]) |
| --- | --- | --- | --- | --- | --- | --- | --- | --- |
| CC[C@H](C)[C@H](N)C(=O)N[C@@H](CCCCN)C(=O)N[C@@H](CCCCN)C(=O)N[C@H](C(=O)N[C@H](C(=O)N[C@@H](CO)C(=O)N[C@@H](CCCCN)C(=O)N[C@H](C(=O)N[C@@H](CCCCN)C(=O)N[C@@H](CCCCN)C(=O)N[C@@H](CC(C)C)C(=O)N[C@@H](CC(C)C)C(=O)N[C@@H](CCCCN)C(N)=O)[C@@H](C)CC)C(C)C)[C@@H](C)CC [L-K6 V1] (H-IKKIVSKIKKLLK-NH2) | dramatically weakened this cytotoxicity | – | – | – | – | – | – | – |
| CC[C@H](C)[C@H](N)C(=O)N[C@@H](CCCCN)C(=O)N[C@@H](CCCCN)C(=O)N[C@H](C(=O)N[C@@H](CC(C)C)C(=O)N[C@@H](CO)C(=O)N[C@@H](CCCCN)C(=O)N[C@H](C(=O)N[C@@H](CCCCN)C(=O)N[C@@H](CCCCN)C(=O)N[C@@H](CC(C)C)C(=O)N[C@@H](CC(C)C)C(=O)N[C@@H](CCCCN)C(N)=O)[C@@H](C)CC)[C@@H](C)CC [L-K6] (H-IKKILSKIKKLLK-NH2) | – | 38 µM | 34 µM | 31 µM | 23 µM | minimum toxicity | rapidly internalize into cells | negligible cellular uptake |
| CC[C@H](C)[C@H](N)C(=O)N[C@@H](CCCCN)C(=O)N[C@@H](CCCCN)C(=O)N[C@H](C(=O)N[C@H](C(=O)N[C@@H](CO)C(=O)N[C@@H](CCCCN)C(=O)N[C@H](C(=O)N[C@@H](CCCCN)C(=O)N[C@@H](CCCCN)C(=O)N[C@@H](CC(C)C)C(=O)N[C@@H](CC(C)C)C(N)=O)[C@@H](C)CC)C(C)C)[C@@H](C)CC [L-K5 V1] (H-IKKIVSKIKKLL-NH2) | dramatically weakened this cytotoxicity | – | – | – | – | – | – | – |

Source: publication PMC5557901, “Cell surface binding, uptaking and anticancer activity of L-K6, a lysine/leucine-rich peptide, on human breast cancer MCF-7 cells” (Scientific Reports, 2017)
